Data set [1] deals with CYP3A4. Conditions: cited from earlier work.
Data set [2] in a line: Safety. In kind it is in vivo, human. The note with it: ketoconazole study, by treatment period.
Data set [3] is classed as in vivo, human. The note with it: ketoconazole + isavuconazole vs ketoconazole alone.
Data set [4] in a line: Phase 1 ethinyl estradiol/norethindrone interaction study: plasma PK. The note with it: for Geometric least-squares mean ratio, AUC0-∞ / Geometric least-squares mean ratio, AUClast / Geometric least-squares mean ratio, Cmax: (90% CI). The class given is in vivo, human.
For data set [5], the system named is esterases. The note with it: in the gut and blood; cited from earlier work.
The nature of data set [6]: Safety. In kind it is in vivo, human. The note with it: rifampin study, by treatment period.
The format of data set [7] is in vivo, human.
A short description of data set [8]: Safety. Conditions: midazolam study, by treatment period. In kind it is in vivo, human.
[9] abbreviates: ethinyl estradiol, presence vs absence of isavuconazole.
[10] abbreviates: ethinyl estradiol: + isavuconazole vs alone.
The mark [11] stands for this setting: norethindrone, coadministration with isavuconazole vs alone.
[12] abbreviates: norethindrone: + isavuconazole vs alone.
Setting [13] is: midazolam + isavuconazole vs midazolam alone, (90% CI).
Setting [14] is: midazolam, presence vs absence of isavuconazole.

Structures can show the parent of a compound that is named as a salt. Where two headings read alike, the source gives them in different places.

In general, half-life refers to the time needed for the level to fall by half in the phase considered. A higher half-life goes with slow loss. For orientation: Tmax means the time from dosing to the highest level. As usually defined, the AUC(0-inf) is total exposure, with the tail of the curve extrapolated. Read a high AUC(0-inf) as more exposure. What is called AUC(0-t) is the area under the concentration-time curve up to a stated or last time point. A higher AUC(0-t) goes with high exposure. The term Cmax denotes the maximum level reached in the sampled fluid or tissue.

In the case of `CCC(C)n1ncn(-c2ccc(N3CCN(c4ccc(OCC5COC(Cn6cncn6)(c6ccc(Cl)cc6Cl)O5)cc4)CC3)cc2)c1=O` (stereo not shown) [itraconazole], the “increase in exposure of midazolam on coadministration” value in data set [1] is “up to 10 fold”.

Consider `CC(=O)N1CCN(c2ccc(OCC3COC(Cn4ccnc4)(c4ccc(Cl)cc4Cl)O3)cc2)CC1` (stereo not shown) [Ketoconazole, ketoconazole, reference compound], for which the “subjects reporting TEAEs” value in data set [2] is “no subjects”. In data set [3] (90% CI 105, 134), the “Geometric least-squares mean ratio, Cmax” value came out at 118%. Moreover, in data set [3] (90% CI 112, 144), the “Geometric least-squares mean ratio, AUCτ” value worked out at 127%.

Turning to `C#C[C@]1(O)CC[C@H]2[C@@H]3CCc4cc(O)ccc4[C@H]3CC[C@@]21C` [Ethinyl Estradiol, ethinyl estradiol], in data set [4] (setting [9]), the “increase in mean AUC0-∞” value is 8%, the “increase in mean AUClast” value was found to be 10% and the “increase in mean Cmax” value is reported as 14%. In addition, in data set [4] (setting [10]), the “Geometric least-squares mean ratio, AUC0-∞” value is 108 (103, 113) %; the “Geometric least-squares mean ratio, AUClast” value is 110 (104, 116) %; the “Geometric least-squares mean ratio, Cmax” value was 114 (103, 126) %. The same molecule had a half-life in data set [4] (female, human, plasma, po) of 20.5 h.

Regarding `CNCC(=O)OCc1cccnc1N(C)C(=O)OC(C)[n+]1cnn(C[C@](O)(c2cc(F)ccc2F)[C@@H](C)c2nc(-c3ccc(C#N)cc3)cs2)c1` (stereo partly shown) [isavuconazonium sulfate], the “hydrolysis of prodrug by esterases” value in data set [5] is listed as “rapid hydrolysis”.

With `C#C[C@]1(O)CC[C@H]2[C@@H]3CCC4=CC(=O)CC[C@@H]4[C@H]3CC[C@@]21C` [Norethindrone, norethindrone], in data set [4] (female, human, plasma, po), the Tmax was determined as 1 h and the half-life was 13.1 h. Besides, in data set [4] (setting [11]), the “increase in mean AUC0-∞” value is on record as 16%, the “increase in mean AUClast” value stood at 16% and the “increase in mean Cmax” value is recorded as 6%. In data set [4] (setting [12]), the “Geometric least-squares mean ratio, AUC0-∞” value is 116 (109, 123) %; the “Geometric least-squares mean ratio, AUClast” value is reported as 116 (109, 123) %; the “Geometric least-squares mean ratio, Cmax” value is listed as 106 (93, 120) %.

For `CC[C@@H]([C@H](C)O)n1ncn(-c2ccc(N3CCN(c4ccc(OC[C@@H]5CO[C@@](Cn6cncn6)(c6ccc(F)cc6F)C5)cc4)CC3)cc2)c1=O` [posaconazole], in data set [1], the “increase in exposure of midazolam on coadministration” value is “up to 5 fold”.

In the case of `CO[C@H]1/C=C/O[C@@]2(C)Oc3c(C)c(O)c4c(O)c(c(/C=N/N5CCN(C)CC5)c(O)c4c3C2=O)NC(=O)/C(C)=C\C=C\[C@H](C)[C@H](O)[C@@H](C)[C@@H](O)[C@@H](C)[C@H](OC(C)=O)[C@@H]1C` [Rifampin, rifampin, reference compound], in data set [6], the “subjects who experienced TEAEs” value is recorded as 19 n and the “subjects with drug-related TEAEs” value was 7 n.

Regarding `Cc1ncc2n1-c1ccc(Cl)cc1C(c1ccccc1F)=NC2` [Midazolam, midazolam], in data set [7] (both, human, plasma, po, 3 mg), the AUC(0-inf) is 46 ng·h/mL, the AUC(0-t) was 44.5 ng·h/mL, the Cmax amounted to 10.7 ng/mL and the Tmax was found to be 1 h. The same molecule had a half-life in data set [7] (both, human, plasma, po, 3 mg) of 5.4 h. Further, in data set [7] (midazolam 3 mg single oral dose alone, day 1, n = 23, arithmetic mean (SD)), the CL/F is 72.1 (24.6) L/h. In data set [7] (setting [13]), the “Geometric least-squares mean ratio, AUC0-∞” value is 203 (173, 238) %; the “Geometric least-squares mean ratio, AUClast” value is 206 (175, 243) %; the “Geometric least-squares mean ratio, Cmax” value is 172 (144, 205) %. In data set [7] (setting [14]), the “increase in mean AUC0-∞” value worked out at 103%, the “increase in mean AUClast” value came out at 106% and the “increase in mean Cmax” value is on record as 72%. Further, in data set [8], the “subjects who experienced TEAEs” value is listed as 9 n and the “subjects with drug-related TEAEs” value was found to be 6 n.
